Data taken from patent US10183011B2, “Anti-depression compounds” (Board of Regents of the University of Texas System, priority 2009, dated 2019).

Columns and labels:
[1] = test system: spinal cord motor neurons; experiment: Spinal motor neuron survival (ChAT) in G93A-SOD1 mice, treatment from disease onset (day 80); assay type: in vivo, mouse; conditions: 20 mg/kg/day from day 80; days 90-120
Protocol: FIG. 34A and FIG. 34B. P7C3A20 and P7C3 block motor neuron cell death in the spinal cord when administered at the time of disease onset to G93A-SOD1 mutant mice. Treatment of G93A-SOD1 mutant mice with 20 mg/kg/d of P7C3A20, P7C3 or Dimebon, or the appropriate vehicle, was initiated on day 80. Five mice from each group were sacrificed on days 90, 100, 110 and 120. The number of spinal cord motor neurons per cubic millimeter of lumbar spinal cord was determined through immunohistochemical staining for ChAT and quantification with NIH Image J software. All images were analyzed blind to treatment group. Spinal cord motor neurons in G93A-SOD1 mutant mice died over time as expected. Spinal cord motor neuron cell death was blocked by administration of P7C3A20. P7C3 was intermediately protective, while Dimebon had no neuroprotective efficacy. (FIG. 34A) Representative staining of ChAT of one ventral horn from each of the 5 mice in each treatment group at 110 days. (FIG. 34B) Graph representation.
Based on the promising results of early (day 40) administration of P7C3 to G93A-SOD1 mutant mice, we next sought to determine whether P7C3A20, P7C3 or Dimebon could protect ventral horn spinal motor neurons when administered at the expected time of disease onset (day 80). We initiated administration of either P7C3, P7C3A20 or Dimebon, each at a dose of 20 mg/kg/day, and analyzed motor neuron cell survival by staining lumbar spinal sections for choline acetyltransferase (ChAT). ChAT, the enzyme that synthesizes the neurotransmitter acetylcholine, serves as a marker for spinal cord motor neurons. All sections were counted blind to treatment group in order to quantify motor neuron survival, and five mice for each treatment group were analyzed at 90, 100, 110 and 120 days. Each treatment group was compared to its own sibling-matched group that received the corresponding vehicle. […]

G93A-SOD1 mutant mice = experiment: Walking gait (pawprint analysis) in G93A-SOD1 mice, treatment from day 80; assay type: in vivo, mouse; conditions: 20 mg/kg/day from day 80
Protocol: FIG. 36A and FIG. 36B. P7C3A20 preserves walking gait when administered at the time of disease onset to G93A-SOD1 mutant mice. […] Front and back stride were collected as a straight line from back paw print to the following paw print. Back-front distance was collected as a straight line from back paw print to the corresponding front paw print. 20 measurements (10 on each side) for each parameter were measured per mouse, and 20 mice per group were evaluated at 90 and 118 day time points. All measurements were conducted blind to treatment group, and the student's t test was used for statistical comparison of a treatment group to its matched vehicle group. FIG. 36B—At 90 days, there were no differences between any groups in back stride, front stride and back-front distance. […] Back stride and front stride were preserved to near-normal levels in P7C3A20 treated mice on day 118. By day 132, P7C3 and Dimebon treated mice were too sick to participate in the task. At this time point, P7C3A20 treated mice continued to show normalized back stride and front stride levels.
Analysis of walking gait offers a second means of assessing motor limb strength and coordination in rodent models of ALS. We conducted this analysis in the same mice used for the accelerating rotarod task, at three time points: 90, 118 and 132 days. Briefly, the front paws of each test mouse were dipped in orange tempera paint, and the back paws in blue tempera paint. […] Key parameters of the pawprints were then manually measured, as described in Methods. […]
Five measurements were taken: front and back stride, front and back width, and front to back distance, as described in Current Protocols for Neuroscience. […] Width from paw print was measured by drawing a line at a 90 degree angle from the line connecting the stride previous and the paw being analyzed. The distance was recorded as length of line from paw to the stride line opposite the paw print. […]
Pawprints were recorded at 90, 118 and 132 days of age. […]

Structure (SMILES)	spinal motor neuron cell death [1]	walking gait (back stride, front stride, back-front distance) (G93A-SOD1 mutant mice)
OC(CNc1ccccc1)Cn1c2ccc(Br)cc2c2cc(Br)ccc21 (stereo not drawn) [Example P7C3]	provided intermediate protection on days 100 (p=0.048) and 110 (p=0.01)	none of these parameters in the walking gait analysis at 20 mg/kg/day were significantly improved
COc1cccc(NCC(F)Cn2c3ccc(Br)cc3c3cc(Br)ccc32)c1 (stereo not drawn) [Example P7C3A20, N-(3-(3,6-dibromo-9H-carbazol-9-yl)-2-fluoropropyl)-3-methoxyaniline]	provided significant protection from spinal motor neuron cell death	helps preserve walking gait
Cc1ccc2c(c1)c1c(n2CCc2ccc(C)nc2)CCN(C)C1 [Dimebon, 2,3,4,5-Tetrahydro-2,8-dimethyl-5-(2-(6-methyl-3-pyridyl)ethyl)-1H-pyrido(4,3-b)indole, reference compound]	indistinguishable from vehicle treatment groups	none of these parameters in the walking gait analysis at 20 mg/kg/day were significantly improved
